Data published in PubChem BioAssay (NCI).
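All cell lines were grown in 96-well plates and treated with compound for 48 hours. TGI denotes the concentration required for complete inhibition of growth.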

Assays:
Experiment in all cases: NCI-60 cell line screen, 48 h
786-0 renal = system: 786-0 renal
A549 NSCLC = system: A549 NSCLC
ACHN renal = system: ACHN renal
CAKI-1 renal = system: CAKI-1 renal
CCRF-CEM leukemia = system: CCRF-CEM leukemia
COLO 205 colon = system: COLO 205 colon
DLD-1 colon = system: DLD-1 colon
DMS 114 small cell lung = system: DMS 114 small cell lung
DMS 273 small cell lung = system: DMS 273 small cell lung
EKVX NSCLC = system: EKVX NSCLC
HCC-2998 colon = system: HCC-2998 colon
HCT-15 colon = system: HCT-15 colon
HL-60(TB) leukemia = system: HL-60(TB) leukemia
HOP-18 NSCLC = system: HOP-18 NSCLC
HOP-92 NSCLC = system: HOP-92 NSCLC
HT29 colon = system: HT29 colon
K-562 leukemia = system: K-562 leukemia
KM12 colon = system: KM12 colon
KM20L2 colon = system: KM20L2 colon
LOX IMVI melanoma = system: LOX IMVI melanoma
LXFL 529 NSCLC = system: LXFL 529 NSCLC
M14 melanoma = system: M14 melanoma
MALME-3M melanoma = system: MALME-3M melanoma
MOLT-4 leukemia = system: MOLT-4 leukemia
NCI-H226 lung = system: NCI-H226 lung
NCI-H23 lung = system: NCI-H23 lung
NCI-H460 lung = system: NCI-H460 lung
NCI-H522 lung = system: NCI-H522 lung
OVCAR-3 ovarian = system: OVCAR-3 ovarian
OVCAR-4 ovarian = system: OVCAR-4 ovarian
OVCAR-5 ovarian = system: OVCAR-5 ovarian
OVCAR-8 ovarian = system: OVCAR-8 ovarian
RPMI-8226 leukemia = system: RPMI-8226 leukemia
RXF 393 renal = system: RXF 393 renal
RXF-631 renal = system: RXF-631 renal
SF-268 CNS = system: SF-268 CNS
SF-295 CNS = system: SF-295 CNS
SK-MEL-2 melanoma = system: SK-MEL-2 melanoma
SK-MEL-28 melanoma = system: SK-MEL-28 melanoma
SK-MEL-5 melanoma = system: SK-MEL-5 melanoma
SK-OV-3 ovarian = system: SK-OV-3 ovarian
SN12C renal = system: SN12C renal
SNB-19 CNS = system: SNB-19 CNS
SNB-75 CNS = system: SNB-75 CNS
SNB-78 CNS = system: SNB-78 CNS
SW-620 colon = system: SW-620 colon
TK-10 renal = system: TK-10 renal
U251 CNS = system: U251 CNS
UACC-257 melanoma = system: UACC-257 melanoma
UO-31 renal = system: UO-31 renal
XF 498 CNS = system: XF 498 CNS
A498 renal = system: A498 renal
HCT-116 colon = system: HCT-116 colon
HOP-62 NSCLC = system: HOP-62 NSCLC
IGROV1 ovarian = system: IGROV1 ovarian
M19-MEL melanoma = system: M19-MEL melanoma
SF-539 CNS = system: SF-539 CNS
UACC-62 melanoma = system: UACC-62 melanoma

Which results are given for `O=C(c1ccccc1)C(c1ccccc1)C1(O)C(=O)Nc2c(Cl)cc(Cl)cc21` (stereo unspecified)?
TGI (786-0 renal): 29.8 µM; TGI (A549 NSCLC): 41.8 µM; TGI (ACHN renal): 33.1 µM; TGI (CAKI-1 renal): 40.1 µM; TGI (CCRF-CEM leukemia): 49.7 µM; TGI (COLO 205 colon): 33.7 µM; TGI (DLD-1 colon): 37.5 µM; TGI (DMS 114 small cell lung): 33.9 µM; TGI (DMS 273 small cell lung): 83.2 µM; TGI (EKVX NSCLC): 27.8 µM; TGI (HCC-2998 colon): 33.8 µM; TGI (HCT-15 colon): > 100 µM; TGI (HL-60(TB) leukemia): 39.5 µM; TGI (HOP-18 NSCLC): 36.6 µM; TGI (HOP-92 NSCLC): 40 µM; TGI (HT29 colon): 58 µM; TGI (K-562 leukemia): 50.3 µM; TGI (KM12 colon): 82.8 µM; TGI (KM20L2 colon): > 100 µM; TGI (LOX IMVI melanoma): 42.8 µM; TGI (LXFL 529 NSCLC): 25.7 µM; TGI (M14 melanoma): 37.9 µM; TGI (MALME-3M melanoma): 32.7 µM; TGI (MOLT-4 leukemia): 61.9 µM; TGI (NCI-H226 lung): 32.6 µM; TGI (NCI-H23 lung): 35.5 µM; TGI (NCI-H460 lung): > 100 µM; TGI (NCI-H522 lung): 34.1 µM; TGI (OVCAR-3 ovarian): > 100 µM; TGI (OVCAR-4 ovarian): 28 µM; TGI (OVCAR-5 ovarian): 33.2 µM; TGI (OVCAR-8 ovarian): 32.9 µM; TGI (RPMI-8226 leukemia): 38.8 µM; TGI (RXF 393 renal): 34.4 µM; TGI (RXF-631 renal): 38 µM; TGI (SF-268 CNS): 51.9 µM; TGI (SF-295 CNS): 33.1 µM; TGI (SK-MEL-2 melanoma): 33 µM; TGI (SK-MEL-28 melanoma): 34.1 µM; TGI (SK-MEL-5 melanoma): 30.7 µM; TGI (SK-OV-3 ovarian): 70.1 µM; TGI (SN12C renal): > 100 µM; TGI (SNB-19 CNS): 55.3 µM; TGI (SNB-75 CNS): 39.7 µM; TGI (SNB-78 CNS): 67.4 µM; TGI (SW-620 colon): 34.3 µM; TGI (TK-10 renal): 41.2 µM; TGI (U251 CNS): 96.6 µM; TGI (UACC-257 melanoma): 35 µM; TGI (UO-31 renal): 38.4 µM; TGI (XF 498 CNS): > 100 µM

With `CC(=O)O/C=C(/C=C/OC(C)=O)C(C/C=C(\C)C#CC=C(C)C)OC(C)=O` (stereo unspecified) as the compound, how does the TGI (786-0 renal) read?
The TGI was greater than 100 µM.

What about the TGI (A498 renal) of the same compound?
The TGI was greater than 100 µM.

And the TGI (A549 NSCLC)?
Its TGI is greater than 100 µM.

And the TGI (ACHN renal)?
The TGI was greater than 100 µM.

What about the TGI (CAKI-1 renal) of the same compound?
Its TGI is greater than 100 µM.

What about the TGI (CCRF-CEM leukemia) of the same compound?
The TGI was greater than 100 µM.

And the TGI (COLO 205 colon)?
The TGI was 68.5 µM.

What about the TGI (DLD-1 colon) of the same compound?
Its TGI is greater than 100 µM.

And the TGI (DMS 114 small cell lung)?
Its TGI is 38.5 µM.

What about the TGI (DMS 273 small cell lung) of the same compound?
The TGI was greater than 100 µM.

And the TGI (EKVX NSCLC)?
Its TGI is greater than 100 µM.

And the TGI (HCC-2998 colon)?
The TGI was greater than 100 µM.

What about the TGI (HCT-116 colon) of the same compound?
The TGI was 39 µM.

And the TGI (HCT-15 colon)?
The TGI was 50.3 µM.

What about the TGI (HL-60(TB) leukemia) of the same compound?
The TGI was 42.4 µM.

What about the TGI (HOP-18 NSCLC) of the same compound?
Its TGI is greater than 100 µM.

What about the TGI (HOP-62 NSCLC) of the same compound?
The TGI was greater than 100 µM.

And the TGI (HOP-92 NSCLC)?
Its TGI is 91.3 µM.

And the TGI (HT29 colon)?
Its TGI is greater than 100 µM.

What about the TGI (IGROV1 ovarian) of the same compound?
Its TGI is 95.6 µM.

And the TGI (K-562 leukemia)?
Its TGI is greater than 100 µM.

And the TGI (KM12 colon)?
Its TGI is 61.5 µM.

What about the TGI (KM20L2 colon) of the same compound?
Its TGI is greater than 100 µM.

And the TGI (LOX IMVI melanoma)?
The TGI was 70.7 µM.

And the TGI (LXFL 529 NSCLC)?
The TGI was 37.1 µM.

And the TGI (M14 melanoma)?
Its TGI is 98.6 µM.

What about the TGI (M19-MEL melanoma) of the same compound?
Its TGI is 41.7 µM.

What about the TGI (MALME-3M melanoma) of the same compound?
The TGI was greater than 100 µM.

What about the TGI (MOLT-4 leukemia) of the same compound?
The TGI was greater than 100 µM.

What about the TGI (NCI-H226 lung) of the same compound?
The TGI was greater than 100 µM.

And the TGI (NCI-H23 lung)?
The TGI was greater than 100 µM.

What about the TGI (NCI-H460 lung) of the same compound?
Its TGI is greater than 100 µM.

What about the TGI (NCI-H522 lung) of the same compound?
The TGI was 73.7 µM.

And the TGI (OVCAR-3 ovarian)?
The TGI was 68.6 µM.

What about the TGI (OVCAR-4 ovarian) of the same compound?
Its TGI is greater than 100 µM.

What about the TGI (OVCAR-5 ovarian) of the same compound?
Its TGI is greater than 100 µM.

And the TGI (OVCAR-8 ovarian)?
Its TGI is greater than 100 µM.

What about the TGI (RPMI-8226 leukemia) of the same compound?
The TGI was greater than 100 µM.

And the TGI (RXF-631 renal)?
Its TGI is greater than 100 µM.

What about the TGI (SF-268 CNS) of the same compound?
Its TGI is greater than 100 µM.

What about the TGI (SF-295 CNS) of the same compound?
The TGI was greater than 100 µM.

What about the TGI (SF-539 CNS) of the same compound?
Its TGI is 54.6 µM.

And the TGI (SK-MEL-2 melanoma)?
The TGI was greater than 100 µM.

What about the TGI (SK-MEL-5 melanoma) of the same compound?
Its TGI is greater than 100 µM.

What about the TGI (SK-OV-3 ovarian) of the same compound?
Its TGI is greater than 100 µM.

And the TGI (SN12C renal)?
Its TGI is greater than 100 µM.

And the TGI (SNB-19 CNS)?
Its TGI is greater than 100 µM.

What about the TGI (SNB-78 CNS) of the same compound?
The TGI was 72.2 µM.

And the TGI (SW-620 colon)?
The TGI was greater than 100 µM.

What about the TGI (TK-10 renal) of the same compound?
Its TGI is greater than 100 µM.

What about the TGI (U251 CNS) of the same compound?
The TGI was greater than 100 µM.

What about the TGI (UACC-257 melanoma) of the same compound?
Its TGI is greater than 100 µM.

And the TGI (UACC-62 melanoma)?
Its TGI is 77.7 µM.

What about the TGI (UO-31 renal) of the same compound?
The TGI was greater than 100 µM.

And the TGI (XF 498 CNS)?
Its TGI is greater than 100 µM.
